Reference: PMC9631343 (ACS Bio & Med Chem Au, 2022)

Tested on: SARS-CoV-2 (Omicron variant, B.1.1.529.1/BA.1 sublineage)
Assay type: cell-based

OC[C@H]1O[C@@H](n2cnc3c(N[C@@H]4CCOC4)ncnc32)[C@H](O)[C@@H]1O [tecadenoson]
100% CPE inhibitory concentration (CPEIC100): 7.65 ± 0.25 µM
